The experiment concerns B6C3F1 mice, Lewis lung carcinoma iv, survival T/C. The experiment in a line: NCI In Vivo Anticancer Drug Screen. Data for tumor model Lewis Lung Carcinoma (intravenous) in B6C3F1 mice. The note with it: endpoint: median survival time, schedule: Q01DX009 (ip), higher = longer survival. As to the method:
The antitumor activity of compounds was measured in mice bearing transplantable tumors. Survival or tumor size were measured and the results are expressed as the measurement made in the treated group (T) divided by the measurement made in the vehicle treated control group (C). The tumor model used in this assay is Lewis Lung Carcinoma (intravenous) in B6C3F1 mice

Where [1] appears, read: dose: 16.0 mg/kg/injection, vehicle: saline with Tween-80.
Where [2] appears, read: dose: 12.5 mg/kg/injection, vehicle: saline with Tween-80.
Setting [3] is: dose: 25.0 mg/kg/injection, vehicle: saline with Tween-80.
Where [4] appears, read: dose: 50.0 mg/kg/injection, vehicle: saline with Tween-80.
The mark [5] stands for this setting: dose: 100.0 mg/kg/injection, vehicle: saline with Tween-80.
Where [6] appears, read: dose: 25.0 mg/kg/injection, vehicle: suspension in saline.
The mark [7] stands for this setting: dose: 50.0 mg/kg/injection, vehicle: suspension in saline.
Where [8] appears, read: dose: 100.0 mg/kg/injection, vehicle: suspension in saline.
The mark [9] stands for this setting: dose: 200.0 mg/kg/injection, vehicle: suspension in saline.
Setting [10] is: dose: 12.5 mg/kg/injection, vehicle: Klucel (hydroxypropylcellulose) (HPC).
[11] abbreviates: dose: 25.0 mg/kg/injection, vehicle: Klucel (hydroxypropylcellulose) (HPC).
[12] abbreviates: dose: 50.0 mg/kg/injection, vehicle: Klucel (hydroxypropylcellulose) (HPC).
[13] abbreviates: dose: 100.0 mg/kg/injection, vehicle: Klucel (hydroxypropylcellulose) (HPC).

Values joined by “and” are separate entries in the source; they are usually repeats but may differ in a detail not shown here. Equal values may be shown once. Toxic doses and inconclusive results are not listed.

Consider `NC(Cc1ccc(N(CCCl)CCCl)cc1)C(=O)O` (stereo not drawn), for which the T/C is, setting by setting: (dose: 1.0 mg/kg/injection, vehicle: saline with Tween-80) 98 % of control; (dose: 2.0 mg/kg/injection, vehicle: saline with Tween-80) 100 % of control; (dose: 4.0 mg/kg/injection, vehicle: saline with Tween-80) 104 % of control; under setting [1], 101 % of control.
Consider `NC(=O)c1csc(C2O[C@@H](COP(=O)(O)OP(=O)(O)OC[C@H]3OC(n4cnc5c(N)ncnc54)[C@H](O)[C@@H]3O)[C@H](O)[C@@H]2O)n1` (stereo partly drawn), for which the T/C is 101 % of control (dose: 3.12 mg/kg/injection, vehicle: water); 98 % of control (dose: 6.25 mg/kg/injection, vehicle: water); 104 % of control (dose: 12.5 mg/kg/injection, vehicle: water); 120 % of control (dose: 25.0 mg/kg/injection, vehicle: water); 209 % of control (dose: 50.0 mg/kg/injection, vehicle: water).
Turning to `CC(C#N)(C#N)N=Nc1ccc(Cl)cc1Cl`, the T/C is 98 % of control under setting [2]; 104 % of control under setting [3]; 109 % of control under setting [4]; 110 % of control under setting [5]; 106 % of control (dose: 200.0 mg/kg/injection, vehicle: saline with Tween-80); 104 % of control (dose: 400.0 mg/kg/injection, vehicle: saline with Tween-80).
On to `CC[C@@]1(O)C(=O)OCc2c1cc1n(c2=O)Cc2cc3cc(O)ccc3nc2-1`, for which the T/C by setting is: (dose: 0.18 mg/kg/injection, vehicle: saline) 106 % of control; (dose: 0.37 mg/kg/injection, vehicle: saline) 104 % of control; (dose: 0.75 mg/kg/injection, vehicle: saline) 102 % of control; (dose: 1.5 mg/kg/injection, vehicle: saline) 103 % of control; (dose: 3.0 mg/kg/injection, vehicle: saline) 110 % of control.
`CS(=O)(=O)Nc1ccc(C(=O)CCN2CCCCCC2)cc1`: the T/C runs as follows: under setting [6], 95 % of control; under setting [7], 100 % of control; under setting [8], 105 % of control; under setting [9], 100 % of control; (dose: 400.0 mg/kg/injection, vehicle: suspension in saline) 102 % of control.
Take `CCCCN(CCCC)C(Cl)=Nc1ccccc1`: the T/C was 106 % of control (dose: 6.25 mg/kg/injection, vehicle: Klucel (hydroxypropylcellulose) (HPC)); 107 % of control under setting [10]; 94 % of control under setting [11]; 96 % of control under setting [12]; 98 % of control under setting [13].
For the compound `CNC(=O)O/N=C(\CN=[N+]=[N-])C(C)(C)C`, the T/C (dose: 0.13 mg/kg/injection, vehicle: saline) was 102 % of control; the T/C (dose: 0.25 mg/kg/injection, vehicle: saline) was 102 % of control; the T/C (dose: 0.5 mg/kg/injection, vehicle: saline) is 106 % of control; the T/C (dose: 1.0 mg/kg/injection, vehicle: saline) is 105 % of control.
As to `Nc1nncs1`, the T/C runs as follows: (dose: 15.19 mg/kg/injection, vehicle: Klucel (hydroxypropylcellulose) (HPC)) 106 % of control; (dose: 20.25 mg/kg/injection, vehicle: Klucel (hydroxypropylcellulose) (HPC)) 100 % of control; (dose: 27.0 mg/kg/injection, vehicle: Klucel (hydroxypropylcellulose) (HPC)) 113 % of control; (dose: 36.0 mg/kg/injection, vehicle: Klucel (hydroxypropylcellulose) (HPC)) 103 % of control and 116 % of control; (dose: 48.0 mg/kg/injection, vehicle: Klucel (hydroxypropylcellulose) (HPC)) 103 % of control.
Regarding `C[C@H](N)C(=O)N[C@@H]1[C@H]2C(=C(O)C[C@@H](O)[C@@H]2O)C(=O)O[C@@H]1C`, the T/C was 102 % of control and 106 % of control (dose: 75.0 mg/kg/injection, vehicle: saline); 105 % of control and 106 % of control (dose: 150.0 mg/kg/injection, vehicle: saline); 107 % of control and 110 % of control (dose: 300.0 mg/kg/injection, vehicle: saline); 114 % of control and 120 % of control (dose: 600.0 mg/kg/injection, vehicle: saline); 117 % of control (dose: 1200.0 mg/kg/injection, vehicle: saline).
In the case of `O=C(CN1CCOCC1)Nc1nc(-c2ccc(Cl)cc2)cs1`, the T/C was 91 % of control (dose: 50.0 mg/kg/injection, vehicle: DMSO); 92 % of control (dose: 100.0 mg/kg/injection, vehicle: DMSO); 103 % of control (dose: 200.0 mg/kg/injection, vehicle: DMSO); 100 % of control (dose: 400.0 mg/kg/injection, vehicle: DMSO); 95 % of control (dose: 800.0 mg/kg/injection, vehicle: DMSO).
Regarding `Cc1[nH]ccc(=O)c1O`, the T/C is, setting by setting: under setting [1], 87 % of control; (dose: 32.0 mg/kg/injection, vehicle: saline with Tween-80) 95 % of control; (dose: 64.0 mg/kg/injection, vehicle: saline with Tween-80) 101 % of control; (dose: 128.0 mg/kg/injection, vehicle: saline with Tween-80) 108 % of control; (dose: 256.0 mg/kg/injection, vehicle: saline with Tween-80) 99 % of control.
Regarding `NC(=S)c1ncn(C2OC(CO)C(O)C2O)c1N` (stereo not drawn), the T/C runs as follows: (dose: 12.5 mg/kg/injection, vehicle: suspension in saline) 100 % of control; under setting [6], 99 % of control; under setting [7], 106 % of control; under setting [8], 110 % of control; under setting [9], 116 % of control.
As to `C[CH2][Ge]([CH2]C)[CH2]C.C[CH2][Ge]([CH2]C)[CH2]C.C[CH2][Ge]([CH2]C)[O][Ge]([CH2]C)[CH2]C`, the T/C is, setting by setting: (dose: 6.25 mg/kg/injection, vehicle: saline with Tween-80) 105 % of control; under setting [2], 106 % of control; under setting [3], 106 % of control; under setting [4], 101 % of control; under setting [5], 113 % of control.
Take `COC1/C=C/C=C(/C)Cc2cc(O)c(Cl)c(c2)N(C)C(=O)CC(OC(=O)C(C)C)C2(C)OC2C(C)C2CC1(O)NC(=O)O2` (stereo not drawn): the T/C reads like this: (dose: 0.06 mg/kg/injection, vehicle: saline + alcohol) 101 % of control; (dose: 0.12 mg/kg/injection, vehicle: saline + alcohol) 96 % of control; (dose: 0.25 mg/kg/injection, vehicle: saline + alcohol) 100 % of control; (dose: 0.5 mg/kg/injection, vehicle: saline + alcohol) 100 % of control.
As for `C=Cc1cnc([N+](=O)[O-])n1C`, the T/C is, setting by setting: under setting [10], 94 % of control; under setting [11], 90 % of control; under setting [12], 99 % of control; under setting [13], 92 % of control; (dose: 200.0 mg/kg/injection, vehicle: Klucel (hydroxypropylcellulose) (HPC)) 92 % of control.

The values are drawn from PubChem BioAssay AID276 (DTP/NCI, 2004).
